# Key:
# [1] = Walker carcinosarcoma 256 tumour growth inhibition in rats; format: in vivo, Sprague-Dawley rats; design: ED50: unit: mg/kg; details: rat, in vivo, po, daily p.o. for 5 days
# Method in brief: (§1)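 Sprague-Dawley rats implanted with Walker 256 tumour pieces 2-4 mm across. Compound dosed p.o. daily for 5 days from the day after implantation, and animals killed on day 9. Tumour weights compared with controls. ED50 is the dose giving 50% tumour-size reduction, and LD50 is the dose giving 50% lethality.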
# [2] = system: Walker carcinosarcoma 256; test: as above; format: in vivo, Sprague-Dawley rats; design: ED50: unit: mg/kg; details: daily p.o. for 5 days, dose causing 50 percent reduction of tumour size, killed 9th day
# Method in brief: as §1
smiles,measurement,setting,value
"CC(=O)[C@@]1(OC(=O)COC(=O)c2ccc(C)c(N(CCCl)CCCl)c2)CC[C@H]2[C@@H]3CCC4=CC(=O)CC[C@]4(C)[C@H]3CC[C@@]21C [Compound 3:7, 17α-/3-(N,N-bis(2-chloroethyl)amino)-4-methylbenzoyloxyacetoxy/pregn-4-ene-3,20-dione]",LD50,[1]; dose causing 50 percent lethality,> 250 mg/kg
same,selectivity ratio,[1]; read-out: T.I. (LD50/ED50),> 15
same,ED50,[2],16
